Data taken from PMC5824344 (ACS Chemical Biology, 2017).

What was measured:
[1] = molecular target: T1, Rat intestinal isomaltase (Rattus norvegicus, UniProt P23739); assay: Inhibition of rat intestinal isomaltase (natural substrate, glucose release); format: biochemical; settings: isolated enzyme in vitro; mean of three measurements; read-out: IC50, α-Glucosidase, Rat intestinal isomaltase
T1 construct: from tissue; host or cells: intestine of male Wistar rats, partially purified extract
Description: (§1) 4 Enzyme Inhibition Assays
(§2) All rat enzymes were isolated from 18-week-old, male Wistar rats, while human lysosomal α-glucosidase was obtained in commercially available form from Sanoﬁ Genzyme. Inhibition of isolated glucosidases was evaluated as described previously. 3 Brieﬂy, maltase, isomaltase, sucrase, and cellobiase were used as partially puriﬁed tissue extracts. Inhibition assays for each enzyme were performed with the respective natural substrate, and release of d-glucose measured by Glucose B-test (Wako Diagnostics). Assays of rat ER α-glucosidase II and human lysosomal α-glucosidase inhibition were conducted with α-p-nitrophenylglucoside as substrate; 400 mm Na2CO3 was added to quench these reactions, and the extent of hydrolysis was evaluated as absorbance at 400 nm by spectrophotometer.
(§3) ER α-glucosidase I inhibition assays were performed using anthranilic acid-labelled Glc3Man7GlcNAc2 as substrate. After terminating the reaction with acetonitrile, protein was removed by cen-trifugation through a 10 kDa molecular weight cut oﬀ ﬁlter. The amount of hydrolysis was then quantiﬁed by normal phase high performance liquid chromatography analysis of unreacted substrate and product (Glc2Man7GlcNAc2).4
(§4) ER α-glucosidase II inhibition assays using native-like substrates were performed using an-thranilic acid-labelled Glc2Man7GlcNAc2 as substrate. After terminating the reaction with acetonitrile, protein was removed by centrifugation through a 10 kDa molecular weight cut oﬀ ﬁlter. The amount of hydrolysis was then quantiﬁed by normal phase high performance liq-uid chromatography analysis of unreacted substrate and both products (Glc1Man7GlcNAc2

Rat intestinal maltase = assay: Inhibition of rat intestinal maltase (natural substrate, glucose release); format: biochemical; settings: isolated enzyme in vitro; mean of three measurements; read-out: IC50, α-Glucosidase, Rat intestinal maltase
Description: as §1, §2, §3, §4

[2] = molecular target: T2, Rat liver ER α-glucosidase I (Rattus norvegicus, UniProt O88941); assay: Inhibition of isolated rat liver ER α-glucosidase I (anthranilic acid-labelled Glc3Man7GlcNAc2 substrate, HPLC); format: biochemical; settings: isolated enzyme in vitro; mean of three measurements
T2 construct: Rat liver ER, I; from tissue; host or cells: liver of male Wistar rats
T2 sequence (O88941 1-834): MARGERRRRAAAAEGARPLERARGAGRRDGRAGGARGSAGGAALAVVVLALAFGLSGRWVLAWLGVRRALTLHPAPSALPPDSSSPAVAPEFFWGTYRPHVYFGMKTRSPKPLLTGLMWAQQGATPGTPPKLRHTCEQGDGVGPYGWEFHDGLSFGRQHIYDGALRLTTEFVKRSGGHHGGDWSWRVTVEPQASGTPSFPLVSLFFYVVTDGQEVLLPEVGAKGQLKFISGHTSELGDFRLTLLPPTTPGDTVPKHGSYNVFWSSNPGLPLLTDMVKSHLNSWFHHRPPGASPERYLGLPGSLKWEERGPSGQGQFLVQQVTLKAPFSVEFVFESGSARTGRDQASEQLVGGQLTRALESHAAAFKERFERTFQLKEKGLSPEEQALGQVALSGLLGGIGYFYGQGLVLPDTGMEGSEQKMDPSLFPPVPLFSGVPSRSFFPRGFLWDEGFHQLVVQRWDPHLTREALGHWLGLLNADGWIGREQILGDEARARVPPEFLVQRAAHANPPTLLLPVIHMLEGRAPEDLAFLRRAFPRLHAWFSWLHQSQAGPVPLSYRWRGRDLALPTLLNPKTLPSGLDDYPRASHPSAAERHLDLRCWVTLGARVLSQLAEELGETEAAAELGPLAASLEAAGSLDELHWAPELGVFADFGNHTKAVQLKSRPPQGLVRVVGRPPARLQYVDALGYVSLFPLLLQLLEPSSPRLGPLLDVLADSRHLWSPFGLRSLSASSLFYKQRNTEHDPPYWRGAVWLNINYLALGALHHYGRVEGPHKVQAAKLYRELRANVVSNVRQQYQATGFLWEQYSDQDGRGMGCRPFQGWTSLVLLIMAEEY
Description: as §1, §2, §3, §4

[3] = molecular target: T3, Rat liver ER α-glucosidase II (Rattus norvegicus, UniProt A0A8I6GFL3); assay: Inhibition of isolated rat liver ER α-glucosidase II (α-p-nitrophenylglucoside substrate); format: biochemical; settings: isolated enzyme in vitro; read-out: IC50 with regard to GluII
T3 construct: Rat liver ER, II; from tissue; host or cells: liver of male Wistar rats
Description: as §1, §2, §3, §4

[4] = parameters: method as in PMID 15522126; settings: cited from earlier work
[5] = test system: DENV2 strain 16681 in primary human MDMΦ; assay: DENV primary MDMΦ antiviral assay (infectious titer by plaque assay); format: cell-based, dengue virus; settings: dengue-infected MDMΦ, 7 donors
Description: each well was scored as either positive (≥ 5 stained cells) or negative. TCID50 values were calculated according to the method of Reed and Muench.8
5.7 DENV Primary MDMΦ Antiviral Assay
DENV2 strain 16681 (a gift from Prof. E. Gould, Centre for Ecology and Hydrology, Oxford, United Kingdom) was propagated in the C6/36 cell line. In the antiviral assay, MDMΦ cells (7 donors) were seeded in a 24-well plate at a density of 1× 10^6 cells/well in 1 mL of growth media. The cells were inoculated for 2 h with DENV2 16681 strain at an MOI of 1. […]
(§5) The infectious DENV titres in supernatants collected were evaluated by plaque assay as described previously.9 Brieﬂy, LLC-MK2 cells were seeded in conﬂuent monolayers in a 12-well plate. Four 10-fold dilutions of each supernatant to be analyzed were prepared in minimum essential media (MEM, Gibco), supplemented with 100 µg mL−1 streptomycin, 100 U mL−1 penicillin and 10% (v/v) FCS. […]
(§6) After 1 d, plaques were observed and counted from the underside of the plate by eye. […]
18 healthy male BALB/c mice (8 – 12 weeks old) weighing between 20 and 35 g were procured from ACTREC, Mumbai, India. […] Temperature and humidity were recorded by an auto-controlled data logging system and maintained at 22± 3◦C and 55± 15% humidity, respectively. […]

[6] = test system: HCV (JFH-1) in Huh7.5 cells; assay: HCV antiviral assay in Huh7.5 cells (infectious titer by TCID50 assay); format: cell-based, hepatitis C virus; settings: MOI 2, 96 h, titration of 4 or 50 µm of 3
Description: (§7) Supplemental Figure 3: Antiviral activity of 4 in human hepatoma Huh7.5 cell line.
(§8) (A) Huh7.5 cells were infected with DENV (serotype 2, strain 16681, multiplicity of infection = 0.1) and treated with a titration of ToP-DNJ 4 or 50 µm of tocopherol 3 for 48 h. Infectious virus titer was measured by plaque assay on LLC-MK2 cells. Counts were normalized to 100% for untreated samples.
(§9) DENV eﬀect at the concentrations tested. (B) Huh7.5 cells were infected with HCV (JFH-1, multiplicity of infection = 2) and treated with a titration of ToP-DNJ 4 or 50 µm tocopherol 3 for 96 h. Infectious virus titer was measured by TCID50 assay on […]
(§10) tested. In both panels, each data point represent the mean of triplicates, with error bars showing standard error of the mean (GraphPad Prism). […]
Huh7.5 cells were seeded in a 96-well plate at a density of 5× 10^3 cells/well in 100 µL growth media. […] The supernatant was harvested, and infectious viral titre assessed immediately in the TCID50 assay.
Huh7.5 cells were seeded in a 96-well plate at a density of 2× 10^4 cells/well in 100 µL of growth media and incubated for 18 h. The supernatants to be evaluated were diluted 1:10 in growth media, and 7 serial half-log10 dilutions were subsequently prepared in the same media. […]
(§11) each well was scored as either positive (≥ 5 stained cells) or negative. TCID50 values were calculated according to the method of Reed and Muench.8 […]

[7] = test system: DENV (serotype 2, strain 16681) in Huh7.5 cells; assay: DENV Huh7.5 antiviral assay (infectious titer by plaque assay); format: cell-based, dengue virus; settings: MOI 0.1, 48 h, titration of 4 or 50 µm of 3
Description: as §7, §8, §9, §10, §11, §5, §6

T1 sequence (P23739 whole entry): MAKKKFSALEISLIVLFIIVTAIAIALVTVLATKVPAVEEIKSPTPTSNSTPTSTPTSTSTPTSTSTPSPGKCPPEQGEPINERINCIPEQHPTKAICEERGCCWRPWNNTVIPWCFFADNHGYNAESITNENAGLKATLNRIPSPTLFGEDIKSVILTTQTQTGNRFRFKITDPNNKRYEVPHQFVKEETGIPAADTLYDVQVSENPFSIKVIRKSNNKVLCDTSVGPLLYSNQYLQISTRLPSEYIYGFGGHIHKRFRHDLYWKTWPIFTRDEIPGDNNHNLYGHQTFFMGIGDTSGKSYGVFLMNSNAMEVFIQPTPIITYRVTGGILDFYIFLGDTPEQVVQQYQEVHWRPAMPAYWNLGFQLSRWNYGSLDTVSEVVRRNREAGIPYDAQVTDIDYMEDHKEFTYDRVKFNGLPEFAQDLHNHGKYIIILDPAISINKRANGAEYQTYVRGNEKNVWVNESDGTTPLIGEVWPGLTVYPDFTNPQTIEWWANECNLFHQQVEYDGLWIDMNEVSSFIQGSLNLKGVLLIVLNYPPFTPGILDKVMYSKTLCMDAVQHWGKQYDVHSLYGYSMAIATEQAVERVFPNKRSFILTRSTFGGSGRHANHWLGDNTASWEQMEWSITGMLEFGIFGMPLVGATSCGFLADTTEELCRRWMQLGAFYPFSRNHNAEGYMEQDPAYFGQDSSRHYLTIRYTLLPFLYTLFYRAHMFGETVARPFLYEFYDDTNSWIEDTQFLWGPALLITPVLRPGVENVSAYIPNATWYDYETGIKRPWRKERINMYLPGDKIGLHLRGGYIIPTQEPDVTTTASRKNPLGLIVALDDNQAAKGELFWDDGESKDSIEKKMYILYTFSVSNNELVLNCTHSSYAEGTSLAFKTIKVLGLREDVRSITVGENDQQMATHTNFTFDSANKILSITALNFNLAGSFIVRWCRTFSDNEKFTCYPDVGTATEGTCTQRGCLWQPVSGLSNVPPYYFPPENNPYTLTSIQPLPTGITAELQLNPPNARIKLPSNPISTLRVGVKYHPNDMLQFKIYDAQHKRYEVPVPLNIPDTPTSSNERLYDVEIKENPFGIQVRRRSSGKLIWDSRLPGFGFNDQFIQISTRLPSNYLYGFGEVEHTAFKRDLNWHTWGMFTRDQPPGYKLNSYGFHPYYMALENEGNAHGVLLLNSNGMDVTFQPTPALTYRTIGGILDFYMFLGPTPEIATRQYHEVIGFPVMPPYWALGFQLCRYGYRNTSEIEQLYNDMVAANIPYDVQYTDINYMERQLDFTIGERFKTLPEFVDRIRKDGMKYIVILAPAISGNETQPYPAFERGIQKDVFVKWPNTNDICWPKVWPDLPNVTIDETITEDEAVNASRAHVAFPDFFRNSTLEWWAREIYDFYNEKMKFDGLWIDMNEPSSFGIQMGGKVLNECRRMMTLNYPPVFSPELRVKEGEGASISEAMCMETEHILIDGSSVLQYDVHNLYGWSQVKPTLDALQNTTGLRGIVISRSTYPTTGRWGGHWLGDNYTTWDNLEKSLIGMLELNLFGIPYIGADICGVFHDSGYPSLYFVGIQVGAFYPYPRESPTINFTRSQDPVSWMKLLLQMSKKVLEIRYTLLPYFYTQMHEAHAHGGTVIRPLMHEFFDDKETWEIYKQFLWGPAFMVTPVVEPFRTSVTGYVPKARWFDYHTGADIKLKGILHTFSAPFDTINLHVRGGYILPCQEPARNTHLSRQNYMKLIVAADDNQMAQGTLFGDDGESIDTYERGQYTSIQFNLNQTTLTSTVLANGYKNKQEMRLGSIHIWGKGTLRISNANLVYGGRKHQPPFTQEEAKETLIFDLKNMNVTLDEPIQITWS
T3 sequence (A0A8I6GFL3 33-944): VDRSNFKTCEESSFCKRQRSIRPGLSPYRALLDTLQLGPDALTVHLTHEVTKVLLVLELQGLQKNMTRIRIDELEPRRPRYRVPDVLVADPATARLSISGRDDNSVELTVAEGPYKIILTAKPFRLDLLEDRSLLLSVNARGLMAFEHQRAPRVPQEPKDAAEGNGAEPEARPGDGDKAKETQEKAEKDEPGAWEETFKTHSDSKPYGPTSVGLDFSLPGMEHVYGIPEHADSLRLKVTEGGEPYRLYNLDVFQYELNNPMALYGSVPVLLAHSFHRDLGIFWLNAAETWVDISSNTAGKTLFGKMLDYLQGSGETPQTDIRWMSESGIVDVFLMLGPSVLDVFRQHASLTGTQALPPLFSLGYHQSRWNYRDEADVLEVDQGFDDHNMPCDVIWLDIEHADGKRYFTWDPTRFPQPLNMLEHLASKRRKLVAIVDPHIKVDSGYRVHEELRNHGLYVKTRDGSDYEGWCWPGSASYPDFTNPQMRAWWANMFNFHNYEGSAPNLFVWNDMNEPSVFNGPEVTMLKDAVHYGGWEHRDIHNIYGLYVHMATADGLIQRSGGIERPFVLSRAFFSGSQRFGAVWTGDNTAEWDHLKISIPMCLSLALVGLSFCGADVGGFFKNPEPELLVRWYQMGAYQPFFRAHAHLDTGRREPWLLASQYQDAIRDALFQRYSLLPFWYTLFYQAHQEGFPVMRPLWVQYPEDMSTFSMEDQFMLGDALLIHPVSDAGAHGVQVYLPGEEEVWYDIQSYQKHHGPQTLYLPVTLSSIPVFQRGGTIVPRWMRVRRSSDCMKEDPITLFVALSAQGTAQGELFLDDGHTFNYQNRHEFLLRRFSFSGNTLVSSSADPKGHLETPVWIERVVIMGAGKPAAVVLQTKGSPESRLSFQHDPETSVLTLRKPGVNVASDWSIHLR
T3 sequence (A0A8I6ADW9 1-525 partner): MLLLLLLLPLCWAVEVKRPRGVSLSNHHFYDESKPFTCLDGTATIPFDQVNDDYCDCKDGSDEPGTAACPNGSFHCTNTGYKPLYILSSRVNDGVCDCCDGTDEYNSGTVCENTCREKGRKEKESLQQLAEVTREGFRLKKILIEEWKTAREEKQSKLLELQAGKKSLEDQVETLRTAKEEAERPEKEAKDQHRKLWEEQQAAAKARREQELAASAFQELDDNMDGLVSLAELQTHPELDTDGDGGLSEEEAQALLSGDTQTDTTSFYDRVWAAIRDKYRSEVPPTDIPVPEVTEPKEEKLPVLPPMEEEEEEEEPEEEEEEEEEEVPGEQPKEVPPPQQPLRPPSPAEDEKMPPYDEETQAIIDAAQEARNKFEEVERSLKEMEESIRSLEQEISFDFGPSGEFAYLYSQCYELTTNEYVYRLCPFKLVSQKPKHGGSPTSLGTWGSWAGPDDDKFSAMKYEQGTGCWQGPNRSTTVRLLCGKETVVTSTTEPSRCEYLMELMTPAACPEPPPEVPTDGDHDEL

SMILES | IC50 [1] | IC50 (Rat intestinal maltase) | IC50 [2] | IC50 [3] | increase of plasma levels when consumed with a lipid-rich meal [4] | antiviral effect on infectious virus titer [5] | anti-HCV effect (infectious virus titer) [6] | anti-DENV effect (infectious virus titer) [7]
OC[C@H]1NC[C@H](O)[C@@H](O)[C@@H]1O [Compound 1, D-1-deoxynojirimycin, reference compound] | 790 nM | 160 nM | 2200 nM | 16000 nM | – | – | – | –
Cc1c(C)c2c(c(C)c1O)CCC(C)(CCCC(C)CCCC(C)CCCC(C)C)O2 [Compound 3, D-(+)-α-tocopherol, reference compound] | – | – | – | – | 10 fold | no antiviral effect | Neither 4 nor 3 showed an anti-HCV eﬀect | Neither 4 nor 3 showed an anti-
